Measured values taken from patent publication US11779014B2, “Adjuvants” (SYNGENTA PARTICIPATIONS AG, priority 2017, dated 2023).

Key:
[1] = tested on: Chenopodium album (CHEAL); assay: Glasshouse adjuvancy test for fomesafen (sodium salt) on CHEAL; format: in vivo; conditions: total surfactant 0.2% w/v, 21 days
Description: Fomesafen sodium salt was added to the spray tank as a standard SL (soluble concentrate) formulation. The plants were sprayed with fomesafen (sodium salt) at rates of 100 or 200 grams of sodium fomesafen per hectare using a laboratory track sprayer which delivered the aqueous spray composition at a rate of 200 litres per hectare, using a flat fan nozzle (Teejet 11002VS) at 2 bar. The spray solutions also contained the oleyl 20EO alone or in the 1:1 blends with the capped surfactants. The adjuvants were added to the spray solution at a total surfactant rate of 0.2% w/v. All spray solutions also contained 10% w/w of iso-propanol. The weed specie and its BBCH growth stage at spraying was Chenopodium album (CHEAL; growth stage 15). Each spray test was replicated three times. The test plants were then grown in a glasshouse under controlled conditions (24/18° C. day/night; 16 hours light; 65% humidity) and watered twice a day. The efficacy of the herbicide was assessed visually and expressed as a percentage of the leaf area killed. Samples were assessed at a time period of 21 days following application.

[2] = tested on: Digitaria sanguinalis (DIGSA); assay: Glasshouse adjuvancy test for nicosulfuron on DIGSA; format: in vivo
Description: The biological efficacies of blends of an oleyl 20 ethoxylate uncapped surfactant with an oleyl 20 ethoxylate surfactant with an n-hexyl ether cap as adjuvants for the herbicide nicosulfuron were tested in a glasshouse against three weed species sown into standard soil in pots and cultivated under controlled conditions in a glasshouse (24/18° C. day/night; 16 hours light; 65% humidity). Nicosulfuron was added to the spray tank as a standard WG (water dispersible granule) formulation. The plants were sprayed with nicosulfuron at rates of 15 or 60 grams of pesticide per hectare using a laboratory track sprayer which delivered the aqueous spray composition at a rate of 200 litres per hectare, using a flat fan nozzle (Teejet 11002VS) at 2 bar. The adjuvants were added to the spray solution at a total rate of 0.1 or 0.2% w/v in all cases and at extra lower rates for the oleyl 20EO alone and its 1:1 blend with the oleyl 20EO n-hexyl ether to show the dose response to these adjuvants. All spray solutions also contained 10% w/w of iso-propanol. The weed species and their BBCH growth stage at spraying were Chenopodium album (CHEAL; growth stage 15), Digitaria sanguinalis (DIGSA; growth stage 14), and Commelina benghalensis (COMBE; growth stage 14). Each spray test was replicated three times. The test plants were then grown in a glasshouse under controlled conditions (24/18° C. day/night; 16 hours light; 65% humidity) and watered twice a day. The efficacy of the herbicide was assessed visually and expressed as a percentage of the leaf area killed. Samples were assessed at a time period of 21 days following application. The following tables (3-8) show the effect of blends of the two surfactants at a total concentration of 0.2 and 0.1%. In each case the blends were 1:0, 3:1, 1:1, 1:3 and 0:1 w/w of oleyl 20EO:oleyl 20 EO n-hexyl ether. The biological efficacies of blends of oleyl 20 ethoxylate and oleyl 20EO ethoxylate with a benzoate cap as adjuvants for the herbicide nicosulfuron were tested in a glasshouse using the same method as for ‘Example 1’ but against just two weed species and with just 0.2% w/v total adjuvant concentration. The weed species and their BBCH growth stage at spraying HI were Chenopodium album (CHEAL; growth stage 13-15) and Digitaria sanguinalis (DIGSA; growth stage 14-22).

[3] = nicosulfuron 15 g ai/ha, 0.1% total surfactant concentration, 21 days, Table 8
[4] = nicosulfuron 15 g ai/ha, 0.2% total surfactant concentration, 21 days, Table 7
[5] = nicosulfuron 60 g ai/ha, 0.1% total surfactant concentration, 21 days, Table 8
[6] = nicosulfuron 60 g ai/ha, 0.2% total surfactant concentration, 21 days, Table 7

Molecule	Mean control ([1]; fomesafen (sodium salt) 100 g ai/ha)	Mean control ([1]; fomesafen (sodium salt) 200 g ai/ha)	Mean control ([2]; dose response, nicosulfuron 15 g ai/ha, adjuvant 0.05%)	Mean control ([2]; dose response, nicosulfuron 15 g ai/ha, adjuvant 0.1%)	Mean control ([2]; dose response, nicosulfuron 15 g ai/ha, adjuvant 0.2%)	Mean control ([2]; dose response, nicosulfuron 60 g ai/ha, adjuvant 0.05%)	Mean control ([2]; dose response, nicosulfuron 60 g ai/ha, adjuvant 0.1%)	Mean control ([2]; dose response, nicosulfuron 60 g ai/ha, adjuvant 0.2%)	Mean control [2, 3]	Mean control [2, 4]	Mean control ([2]; nicosulfuron 15 g ai/ha, 0.2% w/v total adjuvant, Example 3, growth stage 14-22)	Mean control [2, 5]	Mean control [2, 6]	Mean control ([2]; nicosulfuron 60 g ai/ha, 0.2% w/v total adjuvant, Example 3, growth stage 14-22)
CCCCCCCC/C=C\CCCCCCCCOCCOCCOCCOCCOCCOCCOCCOCCOCCOCCOCCOCCOCCOCCOCCOCCOCCOCCOCCOCCO [Oleyl 20EO, oleyl 20 ethoxylate]	68.3%	68.3%	60.0%	76.7%	83.3%	53.3%	60.0%	80.0%	76.7%	83.3%	91.3%	60%	80%	85.0%
Oleyl 20EO n-hexyl ether									81.7%	73.3%		75%	81.7%	
